Test results reported in PubChem BioAssay AID2060491 (Molecular Pharmacology Branch, DTP, NCI, 2025).

System: 857933-349-R-J2-PDC complex spheroids, viability
Test: Anticancer human tumor 857933-349-R-J2-PDC patient-derived colon adenocarcinoma cell line growth inhibition [GQUAD]
Details: for IC50: curve of first compound; for viability, T/C: stronger effect = lower value
Method in brief: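 Tumor cells were grown as complex spheroids with HUVEC endothelial cells and mesenchymal stem cells as stroma. G-quadruplex stabilizers were combined with targeted agents over half-log dilutions from near the clinical Cmax, or from 10 microM.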

[1] = second compound 0.0316 µM, first compound 0.0316 µM
[2] = second compound 0.0316 µM, first compound 0.1 µM
[3] = second compound 0.0316 µM, first compound 0.316 µM
[4] = second compound 0.0316 µM, first compound 1 µM
[5] = second compound 0.0316 µM, first compound 3.16 µM
[6] = second compound 0.0316 µM, first compound 10 µM
[7] = second compound 0.1 µM, first compound 0.0316 µM
[8] = second compound 0.1 µM, first compound 0.1 µM
[9] = second compound 0.1 µM, first compound 0.316 µM
[10] = second compound 0.1 µM, first compound 1 µM
[11] = second compound 0.1 µM, first compound 3.16 µM
[12] = second compound 0.1 µM, first compound 10 µM
[13] = second compound 0.316 µM, first compound 0.0316 µM
[14] = second compound 0.316 µM, first compound 0.1 µM
[15] = second compound 0.316 µM, first compound 0.316 µM
[16] = second compound 0.316 µM, first compound 1 µM
[17] = second compound 0.316 µM, first compound 3.16 µM
[18] = second compound 0.316 µM, first compound 10 µM
[19] = second compound 1 µM, first compound 0.0316 µM
[20] = second compound 1 µM, first compound 0.1 µM
[21] = second compound 1 µM, first compound 0.316 µM
[22] = second compound 1 µM, first compound 1 µM
[23] = second compound 1 µM, first compound 3.16 µM
[24] = second compound 1 µM, first compound 10 µM
[25] = second compound 3.16 µM, first compound 0.0316 µM
[26] = second compound 3.16 µM, first compound 0.1 µM
[27] = second compound 3.16 µM, first compound 0.316 µM
[28] = second compound 3.16 µM, first compound 1 µM
[29] = second compound 3.16 µM, first compound 3.16 µM
[30] = second compound 3.16 µM, first compound 10 µM
[31] = second compound 10 µM, first compound 0.0316 µM
[32] = second compound 10 µM, first compound 0.1 µM
[33] = second compound 10 µM, first compound 0.316 µM
[34] = second compound 10 µM, first compound 1 µM
[35] = second compound 10 µM, first compound 3.16 µM
[36] = second compound 10 µM, first compound 10 µM
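Further: spheroids exposed to compounds for one week before readout.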
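Wherever viability, T/C is given: percent viability relative to vehicle DMSO wells taken as 100%.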

O=C(c1cc(Cc2n[nH]c(=O)c3ccccc23)ccc1F)N1CCN(C(=O)C2CC2)CC1 + CN(C)c1ccc(Nc2c3ccc(NC(=O)CCN4CCCC4)cc3nc3cc(NC(=O)CCN4CCCC4)ccc23)cc1
IC50 (second compound 0.0316 µM): > 10 µM | IC50 (second compound 0.1 µM): > 10 µM | IC50 (second compound 0.316 µM): > 10 µM | IC50 (second compound 1 µM): > 10 µM | IC50 (second compound 3.16 µM): > 10 µM | IC50 (second compound 10 µM): > 10 µM | viability, T/C [1]: 111% | viability, T/C [2]: 99.1% | viability, T/C [3]: 108% | viability, T/C [4]: 98.8% | viability, T/C [5]: 106% | viability, T/C [6]: 107% | viability, T/C [7]: 109% | viability, T/C [8]: 104% | viability, T/C [9]: 100% | viability, T/C [10]: 104% | viability, T/C [11]: 99.8% | viability, T/C [12]: 108% | viability, T/C [13]: 103% | viability, T/C [14]: 99.3% | viability, T/C [15]: 103% | viability, T/C [16]: 98.4% | viability, T/C [17]: 109% | viability, T/C [18]: 107% | viability, T/C [19]: 96% | viability, T/C [20]: 95.6% | viability, T/C [21]: 104% | viability, T/C [22]: 93.7% | viability, T/C [23]: 109% | viability, T/C [24]: 98.5% | viability, T/C [25]: 91.2% | viability, T/C [26]: 82% | viability, T/C [27]: 91.2% | viability, T/C [28]: 84% | viability, T/C [29]: 93.4% | viability, T/C [30]: 91.8% | viability, T/C [31]: 73.1% | viability, T/C [32]: 76.3% | viability, T/C [33]: 75.4% | viability, T/C [34]: 73.2% | viability, T/C [35]: 80.5% | viability, T/C [36]: 81.5%

CC[C@@]1(O)C(=O)OCc2c1cc1n(c2=O)Cc2cc3c(CN(C)C)c(O)ccc3nc2-1 + Cc1cnc(CNC(=O)c2c(=O)c3ccc(N4CCCN(C)CC4)nc3n3c2sc2ccccc23)cn1
IC50 (second compound 0.0316 µM): 0.0872 µM | IC50 (second compound 0.1 µM): 0.068 µM | IC50 (second compound 0.316 µM): < 0.000999 µM | IC50 (second compound 1 µM): < 0.000999 µM | IC50 (second compound 3.16 µM): < 0.000999 µM | IC50 (second compound 10 µM): < 0.000999 µM | viability, T/C (second compound 0.0316 µM, first compound 0.000999 µM): 95.9% | viability, T/C (second compound 0.0316 µM, first compound 0.00316 µM): 96% | viability, T/C (second compound 0.0316 µM, first compound 0.00999 µM): 81.6% | viability, T/C [1]: 59.7% | viability, T/C (second compound 0.0316 µM, first compound 0.0999 µM): 53.1% | viability, T/C [3]: 32.2% | viability, T/C (second compound 0.1 µM, first compound 0.000999 µM): 58.2% | viability, T/C (second compound 0.1 µM, first compound 0.00316 µM): 65.6% | viability, T/C (second compound 0.1 µM, first compound 0.00999 µM): 61.4% | viability, T/C [7]: 60.3% | viability, T/C (second compound 0.1 µM, first compound 0.0999 µM): 44.8% | viability, T/C [9]: 19.6% | viability, T/C (second compound 0.316 µM, first compound 0.000999 µM): 23.6% | viability, T/C (second compound 0.316 µM, first compound 0.00316 µM): 20.7% | viability, T/C (second compound 0.316 µM, first compound 0.00999 µM): 18.6% | viability, T/C [13]: 22% | viability, T/C (second compound 0.316 µM, first compound 0.0999 µM): 14% | viability, T/C [15]: 5.04% | viability, T/C (second compound 1 µM, first compound 0.000999 µM): 4.85% | viability, T/C (second compound 1 µM, first compound 0.00316 µM): 5.23% | viability, T/C (second compound 1 µM, first compound 0.00999 µM): 4.03% | viability, T/C [19]: 3.48% | viability, T/C (second compound 1 µM, first compound 0.0999 µM): 2.83% | viability, T/C [21]: 2.11% | viability, T/C (second compound 3.16 µM, first compound 0.000999 µM): 2.58% | viability, T/C (second compound 3.16 µM, first compound 0.00316 µM): 2.92% | viability, T/C (second compound 3.16 µM, first compound 0.00999 µM): 2.38% | viability, T/C [25]: 2.13% | viability, T/C (second compound 3.16 µM, first compound 0.0999 µM): 1.91% | viability, T/C [27]: 1.66% | viability, T/C (second compound 10 µM, first compound 0.000999 µM): 1.38% | viability, T/C (second compound 10 µM, first compound 0.00316 µM): 1.91% | viability, T/C (second compound 10 µM, first compound 0.00999 µM): 1.93% | viability, T/C [31]: 2.78% | viability, T/C (second compound 10 µM, first compound 0.0999 µM): 0.44% | viability, T/C [33]: 0.24%

COc1cccc2c1C(=O)c1c(O)c3c(c(O)c1C2=O)CC(O)(C(=O)CO)CC3OC1CC(N)C(O)C(C)O1 (stereo unspecified) + CN(C)c1ccc(Nc2c3ccc(NC(=O)CCN4CCCC4)cc3nc3cc(NC(=O)CCN4CCCC4)ccc23)cc1
IC50 (second compound 0.0316 µM): 0.917 µM | IC50 (second compound 0.1 µM): 0.828 µM | IC50 (second compound 0.316 µM): 0.663 µM | IC50 (second compound 1 µM): 0.711 µM | IC50 (second compound 3.16 µM): 0.739 µM | IC50 (second compound 10 µM): 0.978 µM | viability, T/C [1]: 100% | viability, T/C [2]: 97.1% | viability, T/C [3]: 76.7% | viability, T/C [4]: 52.2% | viability, T/C [5]: 8.8% | viability, T/C [6]: 0.64% | viability, T/C [7]: 99.2% | viability, T/C [8]: 92.8% | viability, T/C [9]: 79.3% | viability, T/C [10]: 45.4% | viability, T/C [11]: 9.85% | viability, T/C [12]: 0.72% | viability, T/C [13]: 102% | viability, T/C [14]: 95.8% | viability, T/C [15]: 72.7% | viability, T/C [16]: 37.3% | viability, T/C [17]: 10.8% | viability, T/C [18]: 0.64% | viability, T/C [19]: 103% | viability, T/C [20]: 86% | viability, T/C [21]: 76.2% | viability, T/C [22]: 39.6% | viability, T/C [23]: 12.5% | viability, T/C [24]: 0.68% | viability, T/C [25]: 91.6% | viability, T/C [26]: 76.8% | viability, T/C [27]: 73.7% | viability, T/C [28]: 42.6% | viability, T/C [29]: 11.9% | viability, T/C [30]: 0.97% | viability, T/C [31]: 70.7% | viability, T/C [32]: 73.4% | viability, T/C [33]: 67.1% | viability, T/C [34]: 50.1% | viability, T/C [35]: 9.58% | viability, T/C [36]: 1.5%
